Laboratory results from PubChem BioAssay (NCI).
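The compound was tested at five concentrations on cells cultured in 96-well plates, with a 48-hour exposure period. GI50 = concentration required for 50% inhibition of growth. TGI is the concentration that stops growth completely.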

What was measured:
Test in all cases: DTP human tumour cell line panel, 48 h
MDA-MB-231 breast = system: MDA-MB-231 breast
PC-3 prostate = system: PC-3 prostate
SK-MEL-28 melanoma = system: SK-MEL-28 melanoma
SNB-19 CNS = system: SNB-19 CNS
SR leukemia = system: SR leukemia
CCRF-CEM leukemia = system: CCRF-CEM leukemia
TK-10 renal = system: TK-10 renal
KM12 colon = system: KM12 colon
HOP-92 NSCLC = system: HOP-92 NSCLC
MALME-3M melanoma = system: MALME-3M melanoma
HS 578T breast = system: HS 578T breast
U251 CNS = system: U251 CNS
NCI/ADR-RES ovarian = system: NCI/ADR-RES ovarian
SN12C renal = system: SN12C renal
SF-295 CNS = system: SF-295 CNS
HCT-116 colon = system: HCT-116 colon
HT29 colon = system: HT29 colon
LOX IMVI melanoma = system: LOX IMVI melanoma
A549 NSCLC = system: A549 NSCLC
SK-OV-3 ovarian = system: SK-OV-3 ovarian
NCI-H460 lung = system: NCI-H460 lung
K-562 leukemia = system: K-562 leukemia
HL-60(TB) leukemia = system: HL-60(TB) leukemia
786-0 renal = system: 786-0 renal
NCI-H226 lung = system: NCI-H226 lung
OVCAR-4 ovarian = system: OVCAR-4 ovarian
ACHN renal = system: ACHN renal
SF-539 CNS = system: SF-539 CNS
SK-MEL-5 melanoma = system: SK-MEL-5 melanoma
UACC-62 melanoma = system: UACC-62 melanoma
OVCAR-5 ovarian = system: OVCAR-5 ovarian
HOP-62 NSCLC = system: HOP-62 NSCLC
SK-MEL-2 melanoma = system: SK-MEL-2 melanoma
SNB-75 CNS = system: SNB-75 CNS
SW-620 colon = system: SW-620 colon
MCF7 breast = system: MCF7 breast
UO-31 renal = system: UO-31 renal
HCT-15 colon = system: HCT-15 colon
MDA-MB-435 = system: MDA-MB-435
RPMI-8226 leukemia = system: RPMI-8226 leukemia
OVCAR-3 ovarian = system: OVCAR-3 ovarian
COLO 205 colon = system: COLO 205 colon
CAKI-1 renal = system: CAKI-1 renal
M14 melanoma = system: M14 melanoma
UACC-257 melanoma = system: UACC-257 melanoma
EKVX NSCLC = system: EKVX NSCLC
NCI-H23 lung = system: NCI-H23 lung
BT-549 breast = system: BT-549 breast
OVCAR-8 ovarian = system: OVCAR-8 ovarian
SF-268 CNS = system: SF-268 CNS
IGROV1 ovarian = system: IGROV1 ovarian
DU-145 prostate = system: DU-145 prostate
T-47D breast = system: T-47D breast
A498 renal = system: A498 renal
NCI-H522 lung = system: NCI-H522 lung
MOLT-4 leukemia = system: MOLT-4 leukemia

In the case of `c1cc(N2CCN(c3ccc(C4=NCCN4)cc3)CC2)ccc1C1=NCCN1`, the GI50 (MDA-MB-231 breast) is reported as over 100 µM, the TGI (MDA-MB-231 breast) is reported as over 100 µM and the GI50 (PC-3 prostate) is reported as over 73.6 µM. For the same compound, the TGI (PC-3 prostate) was over 100 µM, the GI50 (SK-MEL-28 melanoma) was over 67.5 µM and the TGI (SK-MEL-28 melanoma) was over 100 µM. The GI50 (SNB-19 CNS) was over 100 µM, the TGI (SNB-19 CNS) was over 100 µM and the GI50 (SR leukemia) was 30.8 µM. It also gave a TGI (SR leukemia) of over 100 µM, a GI50 (CCRF-CEM leukemia) of over 87.4 µM and a TGI (CCRF-CEM leukemia) of over 100 µM. For the same compound, the GI50 (TK-10 renal) was 43 µM, the TGI (TK-10 renal) was 98.9 µM and the GI50 (KM12 colon) was over 49 µM. It also gave a TGI (KM12 colon) of over 96.1 µM, a GI50 (HOP-92 NSCLC) of over 100 µM and a TGI (HOP-92 NSCLC) of over 100 µM. The GI50 (MALME-3M melanoma) was 48.8 µM, the TGI (MALME-3M melanoma) was over 100 µM and the GI50 (HS 578T breast) was 25.1 µM. For the same compound, the TGI (HS 578T breast) was over 78.2 µM, the GI50 (U251 CNS) was 32.7 µM and the TGI (U251 CNS) was over 100 µM. For the same compound, the GI50 (NCI/ADR-RES ovarian) was over 100 µM, the TGI (NCI/ADR-RES ovarian) was over 100 µM and the GI50 (SN12C renal) was 1.85 µM. It also gave a TGI (SN12C renal) of over 26.4 µM, a GI50 (SF-295 CNS) of 24.8 µM and a TGI (SF-295 CNS) of over 80.4 µM. It also gave a GI50 (HCT-116 colon) of over 100 µM, a TGI (HCT-116 colon) of over 100 µM and a GI50 (HT29 colon) of over 100 µM. The TGI (HT29 colon) was over 100 µM, the GI50 (LOX IMVI melanoma) was over 100 µM and the TGI (LOX IMVI melanoma) was over 100 µM. It also gave a GI50 (A549 NSCLC) of 66.7 µM, a TGI (A549 NSCLC) of over 100 µM and a GI50 (SK-OV-3 ovarian) of over 100 µM. The TGI (SK-OV-3 ovarian) was over 100 µM, the GI50 (NCI-H460 lung) was 24.9 µM and the TGI (NCI-H460 lung) was over 100 µM. It also gave a GI50 (K-562 leukemia) of 39.4 µM, a TGI (K-562 leukemia) of over 100 µM and a GI50 (HL-60(TB) leukemia) of over 100 µM. The TGI (HL-60(TB) leukemia) was over 100 µM, the GI50 (786-0 renal) was over 68.9 µM and the TGI (786-0 renal) was over 100 µM. The GI50 (NCI-H226 lung) was over 80.6 µM, the TGI (NCI-H226 lung) was over 100 µM and the GI50 (OVCAR-4 ovarian) was over 100 µM. It also gave a TGI (OVCAR-4 ovarian) of over 100 µM, a GI50 (ACHN renal) of over 100 µM and a TGI (ACHN renal) of over 100 µM. It also gave a GI50 (SF-539 CNS) of 55.4 µM, a TGI (SF-539 CNS) of over 100 µM and a GI50 (SK-MEL-5 melanoma) of 22.4 µM. For the same compound, the TGI (SK-MEL-5 melanoma) was over 68.8 µM, the GI50 (UACC-62 melanoma) was 41.9 µM and the TGI (UACC-62 melanoma) was over 100 µM. For the same compound, the GI50 (OVCAR-5 ovarian) was over 100 µM, the TGI (OVCAR-5 ovarian) was over 100 µM and the GI50 (HOP-62 NSCLC) was 16 µM. The TGI (HOP-62 NSCLC) was 58.7 µM, the GI50 (SK-MEL-2 melanoma) was 52.4 µM and the TGI (SK-MEL-2 melanoma) was over 100 µM. For the same compound, the GI50 (SNB-75 CNS) was over 100 µM, the TGI (SNB-75 CNS) was over 100 µM and the GI50 (SW-620 colon) was over 100 µM. For the same compound, the TGI (SW-620 colon) was over 100 µM, the GI50 (MCF7 breast) was 24.6 µM and the TGI (MCF7 breast) was over 100 µM. The GI50 (UO-31 renal) was over 72 µM, the TGI (UO-31 renal) was over 100 µM and the GI50 (HCT-15 colon) was 66.3 µM. The TGI (HCT-15 colon) was over 100 µM, the GI50 (MDA-MB-435) was 58 µM and the TGI (MDA-MB-435) was over 100 µM. For the same compound, the GI50 (RPMI-8226 leukemia) was 12.8 µM, the TGI (RPMI-8226 leukemia) was over 53.5 µM and the GI50 (OVCAR-3 ovarian) was over 46.9 µM. The TGI (OVCAR-3 ovarian) was over 86 µM, the GI50 (COLO 205 colon) was over 100 µM and the TGI (COLO 205 colon) was over 100 µM. It also gave a GI50 (CAKI-1 renal) of over 57.5 µM, a TGI (CAKI-1 renal) of over 100 µM and a GI50 (M14 melanoma) of over 61 µM. It also gave a TGI (M14 melanoma) of over 100 µM, a GI50 (UACC-257 melanoma) of 58.7 µM and a TGI (UACC-257 melanoma) of 97.5 µM. The GI50 (EKVX NSCLC) was 11.5 µM, the TGI (EKVX NSCLC) was 65.2 µM and the GI50 (NCI-H23 lung) was over 44.4 µM. It also gave a TGI (NCI-H23 lung) of over 100 µM, a GI50 (BT-549 breast) of 24.9 µM and a TGI (BT-549 breast) of over 84.5 µM. It also gave a GI50 (OVCAR-8 ovarian) of 37.2 µM, a TGI (OVCAR-8 ovarian) of over 100 µM and a GI50 (SF-268 CNS) of over 75.3 µM. It also gave a TGI (SF-268 CNS) of over 100 µM, a GI50 (IGROV1 ovarian) of 55.9 µM and a TGI (IGROV1 ovarian) of over 100 µM. It also gave a GI50 (DU-145 prostate) of 45.7 µM, a TGI (DU-145 prostate) of over 100 µM and a GI50 (T-47D breast) of over 100 µM. For the same compound, the TGI (T-47D breast) was over 100 µM, the GI50 (A498 renal) was 7.5 µM and the TGI (A498 renal) was over 100 µM. For the same compound, the GI50 (NCI-H522 lung) was 21.2 µM, the TGI (NCI-H522 lung) was over 77.3 µM and the GI50 (MOLT-4 leukemia) was over 100 µM. It also gave a TGI (MOLT-4 leukemia) of over 100 µM.
